Tests used:
Assay type in all cases: physicochemical
[1] = Solubility of FDCA in water at different temperatures; conditions: water as solvent, temperatures beyond 130° C.
Excerpt: The inventors realized that it is desirable for FDCA crystallization to use superheating for dissolving FDCA. FDCA may show a significant increase in solubility above superheating conditions. […] The byproduct is colored and its formation is therefore undesirable both in view of purity and color.

[2] = Influence of heating time on decomposition (FDCA in water at 130° C.); conditions: for appearance of solution on heating (decomposition): deionised water
Procedure: In a reaction vessel, 60 mg of FDCA was dissolved over time in 3 ml of deionised water at a temperature of 130° C. On heating, around 5 minutes was needed to allow the solid to dissolve. Following this, samples were taken at 12, 15, 18 and 21 minutes. The samples were photographed at these intervals (FIG. 4).

[3] = Influence of heating time on color of the precipitate after cooling; conditions: 200 mg FDCA in 2 mL H2O, 140-180° C., 5-15 min, prolonged heating
Procedure: In another experiment, the influence of heating time on the color of the precipitate after cooling was investigated. A total of nine samples were prepared by mixing 200 mg of FDCA in 2 mL H2O. [table]

SMILES: O=C(O)c1ccc(C(=O)O)o1 [FDCA, 2,5-furandicarboxylic acid]
- solubility of FDCA [1]: increases dramatically
- time needed to allow the solid to dissolve ([2]; 60 mg FDCA in 3 ml deionised water): around 5 minutes
- appearance of solution on heating (decomposition) ([2]; after 12 minutes): a light solution is observed
- appearance of solution on heating (decomposition) ([2]; after 15 minutes): some black solid by-products started to form
- appearance of solution on heating (decomposition) ([2]; after 18 minutes): clearly darker brown in color
- by-product formation after heating and cooling [3]: formation of black solid by-products

From US11104656B2, “Method for purifying and removing color of FDCA” (Nederlandse Organisatie voor …, priority 2017, dated 2021)
